In patent US9258998B2, “Methods for controlling flower development in plants” (Yale University, priority 2009, dated 2016):

Key:
Format in all cases: in vivo
[1] = tested on: wildtype (ts1-ref/+) sibling plants; test: Jasmonic acid treatment of heterozygous wild-type sibling maize plants; details: 1 mM JA, three times at 48-hour intervals
Experimental: (§1) Maize plants were grown under greenhouse conditions. Two seeds were planted in 2-gallon reusable pots containing Super-Fine Germinating Mix (Fafard, Agawam, Mass., USA) or Redi-earth Professional Growing Mix (Sun Gro, Bellevue, Wash., USA). Fertilization was performed with controlled release Osmocote Plus 15-9-12 (Scotts, Marysville, Ohio, USA) following the manufacturer recommendations. Additional watering was performed with 4% ammonium iron citrate (Sigma-Aldrich) every 2 weeks to prevent chlorosis. Greenhouse average temperatures were 28° C. (day) and 21° C. (night). Supplemental lightning was provided to achieve a 16:8 hour photoperiod yearlong.
(§2) Tassels of about 1 cm were considered to be at an ideal stage to initiate chemical treatments. Since a thick leaf whorl covers the maize tassel at this time of development, only a destructive dissection of the plant permits to assess with certainty the stage of tassel development (Bonnet, 1940, J. Agricult. Res. 60:25; Bonnet, 1948, Ann. Mo. Bot. Gard. 35:269). Additionally, the sex determination phase was reached within a wide time window, between 28 and 46 days post-planting, depending on the growing conditions. Leaf number, node number or internode distance were not always reliable criteria to predict the tassel developmental stage. […]

[2] = tested on: ts1 mutant (ts1-ref/ts1-ref) plants; test: Jasmonic acid treatment of ts1 mutant maize tassels
Experimental: as §1
Tassels of about 1 cm were considered to be at an ideal stage to initiate chemical treatments. Since a thick leaf whorl covers the maize tassel at this time of development, only a destructive dissection of the plant permits to assess with certainty the stage of tassel development (Bonnet, 1940, J. Agricult. Res. 60:25; Bonnet, 1948, Ann. Mo. Bot. Gard. 35:269). Additionally, the sex determination phase was reached within a wide time window, between 28 and 46 days post-planting, depending on the growing conditions. Leaf number, node number or internode distance were not always reliable criteria to predict the tassel developmental stage.
Seedlings from a family segregating 1:1 for wild-type (ts1-ref/Ts1) and ts1 mutant (ts1-ref/ts1-ref) plants were genotyped for the Ts1 and ts1-ref alleles with a PCR-based assay. […] Jasmonic acid (JA, Sigma-Aldrich) was dissolved at a concentration of 200 mM in absolute ethanol and stored at −20° C. Prior to plant treatment, the JA stock solution was diluted to a concentration of 1 mM in deionized water. Control plants were treated with a 0.005% ethanol solution (“blank” treatment or negative control). One ml of the corresponding solution was applied into the apical leaf cavity of each plant. Treatments were performed three times at 48-hour intervals.
The developmental timing of the pistil abortion process occurs in tassel inflorescences when they are 1.0 to 3.0 cm in length (Irish & Nelson, 1993, Am. J. Bot. 80:292), which was also the stage at which ts1 expression occurred in the subtending glumes (FIGS. 6B to 6D). A 0.005% ethanol solution, with or without 1 mM JA, was applied to tassels of ˜1 cm in wildtype (ts1-ref/+) or ts1 mutant (ts1-ref/ts1-ref) sibling plants.

[3] = tested on: mutant ts2-ref/ts2-ref and ts2-ref/+ plants; test: Jasmonic acid treatment of ts2 maize plants; details: JA applied as for ts1 plants
Experimental: as §1, §2

[4] = 1 mM JA, three times at 48-hour intervals

CC/C=C\C[C@H]1C(=O)CC[C@@H]1CC(=O)O [JA, (1R,2R)-3-oxo-2-(2Z)-2-pentenylcyclopentaneacetic acid]
effect of treatment on heterozygous ts1-ref/+ sibs [1]: nor did JA treatment affect heterozygous ts1-ref/+ sibs
sexual phenotype of tassel (feminization; staminate spikelets) ([2]; 1 mM JA in 0.005% ethanol, 1 ml into apical leaf cavity, three times at 48-hour intervals, tassels of ~1 cm): reversed feminization
glume morphology of treated ts1 mutants [2, 4]: elongated, were covered with numerous trichomes, and had a ring of anthocyanin deposited at the base
time to appearance of wildtype rescue in glumes after treatment [2, 4]: 3 to 4 weeks
stamen emergence from treated ts1 mutant spikelets ([2]; later in floral development): stamens emerged
pollen viability of staminate florets from rescued ts1/ts1 plants ([2]; pollen used for self-pollination and test crosses): produced viable pollen
completeness of rescued tassel inflorescence phenotype ([2]; some spikelets bisexual, others at base pistillate): incomplete
response of ts2 plants to treatment [3]: responded in the same manner as the JA-treated ts1 mutants
